In PubChem BioAssay AID179 (DTP/NCI, 2004):
The source made the active and inactive calls.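 How the source made its calls: active means compounds giving half or more protection of infected cells from virus-caused growth loss, again on retest; inactive means the rest.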

Test system: CEM cells HIV-1 protection, formazan growth assay
Assay: NCI AIDS Antiviral Assay
Conditions: for IC50: measured here: growth of uninfected CEM cells
How it was run: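 CEM (human) cells, HIV-1 infected vs uninfected, 5-point dosing, formazan growth read-out. Retest threshold 50% protection.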

SMILES | EC50 | IC50 | outcome
COc1ccc2nc3c([N+](=O)[O-])ccc4c3c(c2c1)N(CCCN(C)C)C(=S)N4CCCN(C)C | > 2 µM | 0.537 µM | –
N#Cc1c(NC(=S)NC(=O)c2ccccc2)nc2c(c1-c1ccccc1)CCC2 | > 100 µM | 93.3 µM | –
CCCCCCCCCCCCCCCCOC1OC(CS(=O)(=O)S(=O)(=O)CC2OC(OCCCCCCCCCCCCCCCC)C(O)C(O)C2O)C(O)C(O)C1O (stereo not drawn) | > 7.94 µM | – | –
N=C1N(c2ccccc2)C(=O)C23CCCC2C13N1CCOCC1 (stereo not drawn) | > 219 µM | > 219 µM | –
O=C1OC2OC3OC(=O)C4C3CC2C14 (stereo not drawn) | > 257 µM | > 257 µM | –
COc1cc(OC)c(/C=C\c2cc(/C=C/c3c(OC)cc(OC)cc3OC)c3ccccc3[n+]2C)c(OC)c1 | > 7.94 µM | 0.355 µM | –
CCCc1cc(=O)oc2c3c(cc(OC(C)C)c12)O[C@H](C)[C@@H](C)/C3=N/O | > 200 µM | 3.8 µM | –
CN1COc2c(nc(-c3ccccc3)[nH]c2=O)C1 | > 1020 µM | 61.7 µM | –
CCN(CCO)CC1COc2ccccc2O1 (stereo not drawn) | > 200 µM | > 200 µM | –
CCOC(=O)c1cnc2[nH]ccn2c1=O | > 200 µM | > 200 µM | –
Nc1cc(=O)[nH]c(N)n1 | – | – | inactive
C/C(=N\N=C(/[O-])c1ccncc1)c1cccc(/C(C)=N/N=C(\[O-])c2ccncc2)n1.O.[Cu+2] | > 200 µM | 2.24 µM | –
OC1(c2ccc(Cl)cc2)c2ccccc2C2=Nc3ccccc3CN21 (stereo not drawn) | > 200 µM | 115 µM | –
COc1ccc2c(O)c(C)c(=O)n(C)c2c1 | > 200 µM | > 200 µM | –
CCOC(=O)Cc1csc2[n+]1C(=O)/C(=C\c1cccc(Cl)c1Cl)S2 | > 200 µM | 21.4 µM | –
COc1ccc(NC(=O)C(C)Oc2ccc(OCC3CCCCC3)cc2)cc1 (stereo not drawn) | > 26.3 µM | > 26.3 µM | –
CC(=O)N1N=C(c2ccc3ccccc3c2O)CC1c1cccs1 (stereo not drawn) | > 200 µM | 12 µM | –
Cn1c(=O)c2[nH]c(Nc3ccccc3)nc2n(C)c1=O | > 200 µM | 120 µM | –
COc1ccc(C2Oc3ccc(Cl)cc3C=C2[N+](=O)[O-])cc1OC (stereo not drawn) | > 2 µM | 0.724 µM | –
CN=S(=O)(c1ccccc1)C1(C)CC(C)=C(C)CS1=O (stereo not drawn) | > 200 µM | 132 µM | –
O=C(O)c1ccc2[nH]c(=O)oc2c1 | > 200 µM | > 200 µM | –
CC1(C)CC(=O)c2c(nc3c(ccc4ccccc43)c2-c2ccc(NC(=O)CCCCCCCCC(=O)Nc3ccc(-c4c5c(nc6c4ccc4ccccc46)CC(C)(C)CC5=O)cc3)cc2)C1 | > 100 µM | > 100 µM | –

SMILES | EC50 | IC50 | outcome
Cc1cc(C=O)c(C)c2c1[nH]c1ccccc12 | > 200 µM | 7.59 µM | –
Cc1cc(Cl)ccc1N=C1NC(=O)C(CC(=O)Nc2ccc([N+](=O)[O-])cc2[N+](=O)[O-])S1 (stereo not drawn) | > 77.6 µM | 67.6 µM | –
O=NNc1ccc2ccccc2n1 | > 200 µM | > 200 µM | –
CCOC(C)CCCS(=O)(=O)O (stereo not drawn) | > 200 µM | > 200 µM | –
O=C(O)c1cccc2c(=O)c3ccccc3oc12 | > 977 µM | 209 µM | –
CCNCC1c2ccccc2-c2nc3ccccc3nc2-c2ccccc21 | > 60.3 µM | 8.32 µM | –
CCOP(=O)(OCC)C(C1OC(n2ccc(=O)[nH]c2=O)C(O[Si](C)(C)C(C)(C)C)C1O[Si](C)(C)C(C)(C)C)N(C)O (stereo not drawn) | > 200 µM | 4.79 µM | –
O=c1[nH]c(=S)[nH]c2[nH]c(=S)[nH]c12 | > 200 µM | > 200 µM | –
CCN(CC)c1ccc2cc(-c3csc(C)n3)c(=O)oc2c1 | > 200 µM | 10.2 µM | –
CCc1c(O)sc2c(c1=O)C(=NCC(C)C)CC(C)(C)N2 | > 32.4 µM | > 32.4 µM | –
CN(C)N1C(=O)c2c(Cl)c(Cl)c(Cl)c(Cl)c2C1=O | > 200 µM | 91.2 µM | –
CCOC(=O)CCC(NC(=O)c1ccc(N2CCN(c3c(C)nc(N)nc3N)CC2)cc1)C(=O)OCC (stereo not drawn) | > 0.2 µM | 0.0427 µM | –
Cc1ccc(C)c(NC(=O)CCC(=O)CC(=O)C(C)(C)C)c1 | – | – | inactive
O=C(O)[C@@H](NS(=O)(=O)c1ccc(F)cc1)c1ccccc1 | – | – | inactive
O=c1c2cccc3c4ccccc4c4sc5ccccc5n1-c4c23 | > 11.5 µM | > 11.5 µM | –
Cc1ccc(NC(=O)C(=O)C(C#N)c2nc(-c3ccc(-c4ccccc4)cc3)cs2)c(C)c1 (stereo not drawn) | > 66.1 µM | > 66.1 µM | –
CC12CC/C(=N/NC(N)=O)C3C1CCCC32 | – | – | inactive
CC(=O)c1ccc(NC(=O)C(=O)Nn2c(=S)[nH]c3ccccc3c2=O)cc1 | > 93.3 µM | > 93.3 µM | –
CN(NC(=O)/C(=C/c1ccc(Cl)cc1)NC(=O)c1ccccc1)c1cn[nH]c(=O)c1Cl | > 200 µM | 6.92 µM | –
CCC(=O)C(CCN1CCC2(CCCc3ccccc32)CC1)(c1ccccc1)c1ccccc1 | > 200 µM | 6.61 µM | –
CC(=O)CC(=O)/C=C/c1cccs1 | > 257 µM | 178 µM | –
C=C1CN(S(=O)(=O)c2ccc(C)cc2)CCCN(Cc2ccncc2)CCCN(S(=O)(=O)c2ccc(C)cc2)C1 | > 200 µM | 4.37 µM | –

SMILES | EC50 | IC50 | outcome
COc1ccc([C@H]2[C@H]3COC(=O)[C@H]3C(C#N)=C3Sc4ccccc4N32)cc1 | > 200 µM | 12.9 µM | –
Cc1cc2c(cc1C)C(=O)C1(C2)Cc2cc3c(cc2C1=O)CCC3 (stereo not drawn) | > 100 µM | > 100 µM | –
CCOC(=O)c1nc2ccc(C(F)(F)F)cc2nc1NCc1ccc(F)cc1 | > 200 µM | 23.4 µM | –
CN(N)P(=O)(c1ccccc1)N(C)N | > 1150 µM | 501 µM | –
Cc1cc(C)c(NC(=O)c2ccccc2)c(=O)o1 | > 200 µM | > 200 µM | –
O=c1cc(O)c2c(O)cc(O)cc2o1 | > 200 µM | > 200 µM | –
O=c1c2ccccc2ncn1O | > 200 µM | > 200 µM | –
CC1=Nn2c(nnc2-c2ccc(N)cc2)NC(C)(C)C1 | > 933 µM | > 933 µM | –
COc1cc(C(=O)O)ccc1OS(=O)(=O)O | > 200 µM | > 200 µM | –
CC(C)C(CCl)NC(=O)c1cccc(C(=O)N[C@H](CCl)C(C)C)n1 (stereo in doubt) | > 69.2 µM | > 69.2 µM | –
CC1OC(Oc2c(-c3cc(O)c(O)c(O)c3)oc3cc(O)cc(O)c3c2=O)C(O)C(O)C1O (stereo not drawn) | – | – | inactive
Cc1cccc(C(C)(C)C)c1NC(=O)CC1C(=O)Nc2ccccc2S1(=O)=O (stereo not drawn) | > 1.86 µM | > 1.86 µM | –
CC(C)OP(=O)(CN(C)/C(F)=N\C(F)(F)F)OC(C)C | > 200 µM | > 200 µM | –
CSc1nnc(C(C#N)C#N)nn1 | – | – | inactive
CCN(CC)CC(=O)Nc1ccc(Cc2ccc(NC(=O)CN(CC)CC)cc2)cc1 | > 200 µM | 16.2 µM | –
Cc1ccccc1C=NC12CC3CC(CC(C3)C1)C2 | > 53.7 µM | > 53.7 µM | –
CN(C)CCN1N=Nc2cccc3cccc1c23 | – | – | inactive
CC(C#N)NCc1ccc(C(C)NC(C)C#N)cc1 (stereo not drawn) | > 200 µM | > 200 µM | –
CC(C)/C(Cl)=N\OC(=O)Nc1cccc(F)c1 | > 200 µM | 9.77 µM | –
O=C1NC(=NC2CCCCC2)C2(CCN(CCCC3(c4ccc(F)cc4)OCCO3)CC2)N1c1ccccc1 | > 200 µM | 102 µM | –
CC(=O)N1C(=N)SCC1C(N)=O (stereo not drawn) | 427 µM | 479 µM | –
Brc1ccc(C[N+]23CN4CN(CN(C4)C2)C3)cc1 | – | – | inactive
